# Patent US11305024B2, “Cross-linked polymer modified nanoparticles” (OREGON HEALTH & SCIENCE UNIVERSITY, priority 2015, dated 2022)
# Experiments:
# HCC1954 [1] = conditions: in vitro and/or in mice; cited from earlier work
# Red blood cells = experiment: Hemolysis; format: cell-based, human; conditions: 4 hours, 37° C.; nanoparticle 70 or 350 μg/mL (1× or 5×)
# Description: Nanoparticles were tested at 1× and 5× of the intended human blood level. Studies of blood compatibility were performed following or with minor modification from the Nanotechnology Characterization Laboratory's (Frederick, Md.) published protocols.
# Human blood was collected in the presence of EDTA, and serum was removed. Red blood cells were suspended at 1×10^9 cells per mL and exposed to nanoparticle (final concentrations of 70 or 350 μg/mL for 1× or 5×, respectively) for 4 hours and 37° C. Following centrifugation, absorbance of hemoglobin in the supernatants (at 542 nm) was measured and used to quantify percent hemolysis.
# Platelet-rich plasma = experiment: Platelet aggregation assay; design: species or system human; conditions: monitored for three minutes; 1× and 5×
# Description: Platelet-rich plasma (PRP) was obtained following centrifugation of isolated blood (diluted in 3.2% sodium citrate, 1:10). The isolated blood was centrifuged at 200 g for 20 minutes. The supernatant (which contains PRP) was collected and maintained at room temperature prior to treatment. Following a 1-min incubation at 37° C. (baseline), reactions were initiated by addition of nanoparticle (70 or 350 μg/mL) or collagen related peptide (CRP; 100 μg/ml) and monitored for three minutes for optical density via an aggregometer (Chrono-log Corp).
# BT474 = experiment: Screening of siRNA in combination with paclitaxel, cell viability; format: cell-based; conditions: for Cell Viability (% of Scramble Control): 30 nM siRNA; for Enhanced Paclitaxel effect due to gene knockdown: over paclitaxel alone
# Description: (§1) Cells were first treated with 30 nM siRNAs (and commercial DharmaFECT™) followed by 5 nM paclitaxel treatment 24 hours later. Cell viability was determined 3 days later. […] In short, knocking down HER2 had the greatest impact on paclitaxel toxicity in BT474 (having highest HER2 level). […] The effect of paclitaxel combined with siAKT1/BCL2 or siEPS8L1 was also significant. The best enhancement by siAKT1/BCL2 (38-41%) appeared to be with basal cells, HCC1954, BT549, and HCC70. EPS8L1 is involved in EGFR signaling and functions in cell migration.
# HCC70 = experiment: as above; format: cell-based; conditions: for Cell Viability (% of Scramble Control): 30 nM siRNA; for Enhanced Paclitaxel effect due to gene knockdown: over paclitaxel alone
# Description: as §1
# HCC1954 [2] = experiment: as above; format: cell-based; conditions: for Cell Viability (% of Scramble Control): 30 nM siRNA; for Enhanced Paclitaxel effect due to gene knockdown: over paclitaxel alone
# Description: as §1
# BT549 = experiment: as above; format: cell-based; conditions: for Cell Viability (% of Scramble Control): 30 nM siRNA; for Enhanced Paclitaxel effect due to gene knockdown: over paclitaxel alone
# Description: as §1
# SKBR3 = experiment: as above; format: cell-based; conditions: for Cell Viability (% of Scramble Control): 30 nM siRNA; for Enhanced Paclitaxel effect due to gene knockdown: over paclitaxel alone
# Description: as §1
# [3] = tested on: basal cells, HCC1954, BT549, and HCC70; experiment: Screening of siRNA in combination with paclitaxel, basal cells as a group; format: cell-based
# Description: as §1
# luciferase = experiment: Luciferase silencing by siLUC-loaded nanoconstructs in LM2-4luc+/H2N cells; format: cell-based; conditions: 13-130 nM GALA, 15 nM siRNA, NP/siRNA 50, non-cross-linked PEI, 2 days
# Description: The LM2-4luc+/H2N cell line (over-expressing luciferase and HER2; J. M. du Manoir et al., 2006) was used for initial assessment of the nanoparticles for gene silencing efficacy when delivering siRNA against luciferase (siLUC). Cells were plated at 3000 cells/well in a 96-well plate. One day after seeding, cells were treated with siLUC-nanoparticles. The nanoparticles were loaded with siLUC at NP/siRNA ratio of 25 or 50 by mass. […] The commercially available transfection agent, DharmaFECT™ (Dharmacon, Lafayette, Colo.), with the same siLUC dose served as a positive control. Non-targeting or scrambled siRNA (siSCR) was used throughout as a negative control. After overnight incubation (−20 hours), cells were washed once to remove the nanoconstructs and replenished with a complete media. At 48 hours post-treatment, cells were lysed and analyzed for luciferase activity by the Luciferase Glow Assay Kit (Thermo Fisher Scientific, Waltham, Mass.) and protein concentration by the BCA protein assay kit (Thermo Fisher Scientific), following manufacturer's protocols. Luciferase activity of the lysate was normalized with the corresponding protein concentration in the same well and reported as a percentage of the untreated or siSCR controls. All treatments were performed with replicates.
# [4] = Serum protection assay (siRNA in 50% human serum); format: in vitro ADME; conditions: 37° C.
# Description: siRNA-nanoparticles were incubated with 50 v/v % human serum in PBS for a specified period of time (0, 0.5, 1, 2, 4, 8, 24, and 48 hours) at 37° C. under continuous shaking. At the end of each time point, the sample was mixed with proteinase K (200 μg/mL) and frozen at −80° C. to stop the enzymatic reaction. For the analysis, samples were thawed and mixed with 1.0 wt. % SDS in order to release siRNA from the nanoparticles. The sample was then mixed with an equal amount of 2× loading buffer and loaded into a 15% TBE-urea gel (BioRad). The gel ran at 100 V for the first 20 minutes and 150 V for another hour. The gel was then stained with SyBR Gold (Life Technologies) following the manufacturer's protocol and viewed in a UV chamber. The band intensity was analyzed by ImageJ software (National Institutes of Health, Bethesda, Md.). The fraction of intact siRNA was reported as a function of time that the siRNA-nanoparticles were in 50% serum.
# HER2+ cell lines = experiment: Growth inhibition by siHER2 in a panel of HER2+ cell lines; format: cell-based; conditions: 19 out of 20 HER2+ cell lines; read-out: dose of the siHER2 required to inhibit cell growth by 50% (G150)
# [5] = metastatic solid tumor patients; cited from earlier work
# [6] = BT474, then 5 nM paclitaxel 24 hours later (paclitaxel +)
# [7] = HCC70, then 5 nM paclitaxel 24 hours later (paclitaxel +)
# [8] = HCC1954, then 5 nM paclitaxel 24 hours later (paclitaxel +)
# [9] = BT549, then 5 nM paclitaxel 24 hours later (paclitaxel +)
# [10] = SKBR3, then 5 nM paclitaxel 24 hours later (paclitaxel +)
# [11] = BT474 (HER2 positive, luminal), DharmaFECT, paclitaxel −
# [12] = HCC70 (triple negative, basal), DharmaFECT, paclitaxel −
# [13] = HCC1954 (HER2 positive, basal), DharmaFECT, paclitaxel −
# [14] = BT549 (triple negative, basal), DharmaFECT, paclitaxel −
# [15] = SKBR3 (HER2 positive, luminal), DharmaFECT, paclitaxel −
compound,measurement,setting,value
pertuzumab,resistance of HCC1954,HCC1954 [1],resistant
Triton-X,hemolysis of red blood cells,Red blood cells,complete blood lysis
collagen related peptide,platelet aggregation,Platelet-rich plasma,triggered aggregation immediately
"siSCR: non-targeting or scrambled siRNA control, SEQ ID NO. 5 and 6 (chain 1 UGGUUUACAUGUCGACUAA; chain 2 UUAGUCGACAUGUAAACCA; listed as RNA, chemistry not given here) [reference compound]",Cell Viability (% of Scramble Control),BT474; [6],58%
same,Cell Viability (% of Scramble Control),HCC70; [7],70%
same,Cell Viability (% of Scramble Control),HCC1954 [2]; [8],55%
same,Cell Viability (% of Scramble Control),BT549; [9],59%
same,Cell Viability (% of Scramble Control),SKBR3; [10],39%
"siAKT1/BCL2: dual-targeting siRNA duplex, one strand targets AKT1, the other BCL2, SEQ ID NO. 7 and 8 (chain 1 AUUCAGUUUCACAUUGCUUGGUGAC; chain 2 GUCACCAAGAACUGUGACACAGAAGGG; listed as RNA, chemistry not given here)",best enhancement of paclitaxel effect,[3],38-41%
same,Cell Viability (% of Scramble Control),BT474; [11],74%
same,Cell Viability (% of Scramble Control),BT474; [6],39%
same,Enhanced Paclitaxel effect due to gene knockdown,BT474; BT474,19%
same,Cell Viability (% of Scramble Control),HCC70; [12],42%
same,Cell Viability (% of Scramble Control),HCC70; [7],29%
same,Enhanced Paclitaxel effect due to gene knockdown,HCC70; HCC70,41%
same,Cell Viability (% of Scramble Control),HCC1954 [2]; [13],47%
same,Cell Viability (% of Scramble Control),HCC1954 [2]; [8],17%
same,Enhanced Paclitaxel effect due to gene knockdown,HCC1954 [2]; HCC1954,38%
same,Cell Viability (% of Scramble Control),BT549; [14],54%
same,Cell Viability (% of Scramble Control),BT549; [9],23%
same,Enhanced Paclitaxel effect due to gene knockdown,BT549; BT549,36%
same,Cell Viability (% of Scramble Control),SKBR3; [15],77%
same,Cell Viability (% of Scramble Control),SKBR3; [10],29%
same,Enhanced Paclitaxel effect due to gene knockdown,SKBR3; SKBR3,10%
GALA,effect of co-loaded peptide on silencing efficacy,luciferase,clearly enhanced silencing efficacy of the nanoconstructs
N.N.[Cl][Pt][Cl] [cisplatin],resistance of HCC1954,HCC1954 [1],resistant
"siHER2: siRNA against HER2, SEQ ID NO. 1 and 2 (chain 1 CACGUUUGAGUCCAUGCCCAAUU; chain 2 UUGGGCAUGGACUCAAACGUGUU; listed as RNA, chemistry not given here)",half-life,[4],about 1 hour
same,time within which siHER2 was degraded,[4]; without nanoparticles,≤ 0.5 h
same,IC50,HER2+ cell lines,< 5 nM
same,Cell Viability (% of Scramble Control),BT474; [11],35%
same,Cell Viability (% of Scramble Control),BT474; [6],26%
same,Enhanced Paclitaxel effect due to gene knockdown,BT474; BT474,32%
same,Cell Viability (% of Scramble Control),HCC70; [12],76%
same,Cell Viability (% of Scramble Control),HCC70; [7],49%
same,Enhanced Paclitaxel effect due to gene knockdown,HCC70; HCC70,21%
same,Cell Viability (% of Scramble Control),HCC1954 [2]; [13],68%
same,Cell Viability (% of Scramble Control),HCC1954 [2]; [8],49%
same,Enhanced Paclitaxel effect due to gene knockdown,HCC1954 [2]; HCC1954,6%
same,Cell Viability (% of Scramble Control),BT549; [14],51%
same,Cell Viability (% of Scramble Control),BT549; [9],40%
same,Enhanced Paclitaxel effect due to gene knockdown,BT549; BT549,19%
same,Cell Viability (% of Scramble Control),SKBR3; [15],51%
same,Cell Viability (% of Scramble Control),SKBR3; [10],33%
same,Enhanced Paclitaxel effect due to gene knockdown,SKBR3; SKBR3,6%
[SH-].[SH-].[S]=[Mo]=[S] [tetrathiomolybdate],treated patients with mild copper deficiency who achieved stable disease,[5],five out of six
